{"source": "patent US6706686B2", "about": "“Inhibition of histone deacetylase as a treatment for cardiac hypertrophy” (The Regents of the University of Colorado, priority 2001, dated 2004)", "key": {"[1]": {"tested_on": "cultured cardiac myocytes", "assay": "Myocyte growth by 14C-phenylalanine radiolabeled protein content", "assay_type": "cell-based, rat", "protocol": "Cell culture. Ventricular myocytes from one-day-old rats were plated at low density in MEM with 5% calf serum, and studied in serum-free MEM. Cultures were treated with PE (#P6126, Sigma-Aldrich Corp., St. Louis, Mo.), IL-1 (#501-RL, R&D Systems, Minneapolis, Minn.), TSA (#GR-309, BIOMOL Research Laboratories, Inc., Plymouth Meeting, Pa.) or their vehicles (ascorbic acid for PE; bovine serum albumin for IL-1; dimethyl sulfoxide for TSA).\nQuantification of myocyte hypertrophy and myocyte-specific mRNA expression. Growth of cultured myocytes was quantified by content of radiolabeled protein after continuous incubation with ^14C-phenylalanine. For evaluation of the myocyte gene program, total RNA was extracted from cells with TRIZol (GIBCO, Carlsbad, Calif.) and used in RNase protection assay with probes for SERCA, α-/β-MyHC, ANP, BNP, and cardiac α-actin. All samples also included glyceraldehyde phosphate dehydrogenase (GAPDH) as an internal control for RNA loading."}, "[2]": {"tested_on": "SERCA, αMyHC, βMyHC promoters in cultured myocytes", "assay": "CAT reporter assay of myocyte-specific promoters", "assay_type": "cell-based, rat", "conditions": "TSA 30 nmol/L", "protocol": "FIGS. 2A-D. Over-expression of HDACs repress muscle-specific promoters. Cultured myocytes were transfected for 72 hrs. with expression vectors (2 μg per ˜3×10^5 cells) for Flag-tagged HDAC1, 4, 5 (or its backbone vector) and CAT reporter (5 μg) constructs for SERCA (FIG. 2A), αMyHC (FIG. 2B), βMyHC (FIGS. 2C and 2D) genes, plus SV40-driven secreted alkaline phosphatase (SEAP 1 μg, Clontech). TSA was used at 30 nmol/L, and added just after the transfection. PE […] (20 μmol/L) was added 24 hrs. later and CAT assays performed after an additional 48 hours. Mean data are from n=3 different cultures, and are presented as % of pCMV after normalization to SEAP activity in the media. Over-expression of HDAC was confirmed by Western blot for Flag.\nTransfection. Myocytes were transfected using calcium-phosphate co-precipitation with cytomegalovirus promoter driven Flag-tagged expression vectors for HDACs 1, 4, 5 and reporter plasmids carrying the rat promoters for SERCA (3500 bp), αMyHC (2900 bp), or βMyHC (3300 bp) driving expression […] of the chroramphenicol acetyltransferase (CAT) gene. Reporter expression was evaluated after 48 hours as described previously with corection for transfection efficiency with SEAP (BD Biosciences Clontech, Palo Alto, Calif.). Over-expression of HDACs was confirmed by Western blot analyses using anti-Flag M2 antibody (Sigma-Aldrich Corp. St. Louis, Mo.)."}, "[3]": {"tested_on": "ANF promoter in neonatal rat cardiomyocytes", "assay": "ANF promoter transcription (luciferase) assay", "assay_type": "cell-based", "protocol": "(§1) FIGS. 3A-D. HDAC inhibitors block the activation of ANF reporter by phenylphrine without cytotoxicity. Neonatal rat cardiomyocytes were co-transfected with a total of 1 μg of the mouse 3 kb ANF promoter fragment and CMV-Lac Z plasmids. (FIG. 3A) The ANF promoter is minimally active in unstimulated cardiomyocytes. […] (FIG. 3B) Lac Z expression by the constitutive promoter CMV. Treatment with HDAC inhibitors augmented CMV activity with and without phenylephrine co-treatment. (FIGS. 3C and 3D) The graphs show the measurements of adenylate kinase activity remains constant in the medium after […] of culturing cardiomyocytes in the absence or presence of hypertrophic stimulants FBS, PE or ET-1.\nCardiomyocyte isolation. Hearts were harvested from 15-day timed-pregnant female Sprague-Dawley rats (Harlan, Houston, Tex.). After mincing in phosphate-buffered saline, cardiomyocytes were isolated from successive digestion fractions of 0.1% (w/v) Pancreatin (Sigma, St. Louis, Mo.) solution. Fractions were collected; resuspended in plating medium, pooled; and then plated for 2 hours to separate fibroblasts from cardiomyocyte population. Suspended cells were recollected and plated in 6-well dishes at 1×10^6 cells/well for transfection and immunofluorescence experiments, and 2×10^6 cells in 10 cm dishes for RNA analysis.\n(§2) Transcription assay. Twenty-four hours after plating, cells were transfected with total of 1 μg/ml for 5 hrs using Lipofectamine Plus reagent (Invitrogen, Carlsbad, Calif.). Transfected cells were incubated 24 hrs then treated for an additional 24 hrs. Cells were lysed and their lysates assayed with the Luciferase Assay System (Promega, Madison, Wis.) for luminescence using Lucysoft 2 luminometer (Rosys Anthos, New Castle, Del.)."}, "[4]": {"tested_on": "CMV-Lac Z reporter in neonatal rat cardiomyocytes", "assay": "CMV-Lac Z reporter (specificity control)", "assay_type": "cell-based", "conditions": "inhibitor alone or together with phenylephrine", "protocol": "as §1, §2"}, "cardiomyocytes": {"tested_on": "cardiomyocytes", "assay": "Protein synthesis (tritiated leucine, S6 ribosomal protein)", "assay_type": "cell-based, rat", "protocol": "FIG. 6. The effects of TSA treatment on the reorganization of the sarcomeres and protein synthesis. […] The graphs on the right show the content of S6 ribosome protein in cardiomyocytes after 24 hours co-treatment with PE and increasing concentrations of TSA or with serum and increasing concentrations of TSA.\nProtein synthesis. Cardiomyocytes were incubated with (1.0 μCi/ml; 172 Ci/mmol sp. activity) tritiated-leucine (ICN Biochemicals, Inc., Irvine, Calif.) in treated RPMI media (Invitrogen, Carlsbad, Calif.). After 6 hrs incubation, the cells were washed twice with 1× PBS, then incubated in 10% TCA on ice for 30 min. Afterwards, the cells were washed twice with 5% TCA, once with water, and then lysed in […]. Lysates were measured in one-sixth volume of scintillation fluid by a scintillation counter (Beckman, Fullerton, Calif.).\nS6 Ribosomal protocol. After blocking, cells were incubated in 1% BSA/1× PBS containing 50 μg/ml anti-S6 protein (Cell Signaling, […]) for 1 hr. After washing, the cells were incubated with IgG-HRP (Jackson Labs, […]) at a 1:400 dilution. The cells were then washed twice in 1% BSA/1× PBS, in 1× PBS, then blotted dry. Luminol (Pierce, Rockford, Ill.) was added and the chemiluminescence was detected in a Fusion reader (Perkin-Elmer/Packard)."}}, "note": "“Also recorded” adds a separate entry of the source."}
{"smiles": "CC(/C=C/C(=O)NO)=C\\[C@@H](C)C(=O)c1ccc(N(C)C)cc1", "note": "[TSA, Trichostatin A]", "values": [{"measurement": "myocyte growth", "setting": "[1]; inhibitor by itself", "value": "had no effect on myocyte growth"}, {"measurement": "hypertrophic responses to PE and IL-1 (growth)", "setting": "[1]; with PE or IL-1", "value": "enhanced the individual hypertrophic responses to both PE and IL-1"}, {"measurement": "basal SERCA2 promoter activity", "setting": "[2]", "value": "increased the basal promoter activities"}, {"measurement": "basal αMyHC promoter activity", "setting": "[2]", "value": "increased the basal promoter activities"}, {"measurement": "basal βMyHC promoter activity", "setting": "[2]", "value": "not that of βMyHC"}, {"measurement": "activation of ANF promoter by phenylephrine", "setting": "[3]; phenylephrine 100 μM, TSA 85 nM, NaBut 5 mM, HC-toxin 5 ng/ml", "value": "did block the promoter's activation by phenylephrine treatment completely; also recorded: prevented the activation of the ANF promoter"}, {"measurement": "ANF promoter activity, inhibitor alone", "setting": "[3]; unstimulated cardiomyocytes", "value": "did not activate the ANF promoter"}, {"measurement": "transcriptional activity of CMV-Lac Z reporter", "setting": "[4]", "value": "increased the transcriptional activity of the CMV-Lac Z reporter"}, {"measurement": "phenylephrine-stimulated protein synthesis, 6 hours", "setting": "cardiomyocytes; 6 hours co-culture with phenylephrine", "value": "had little effect on the stimulation of protein synthesis; also recorded: does not alter this increase"}, {"measurement": "protein synthesis induced by PE or serum, 24 hrs", "setting": "cardiomyocytes; 24 hrs co-treatment", "value": "antagonized the protein synthesis normally induced by PE or serum in a dose-dependent manner"}]}
